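Cultured in 96-well plates, cells were exposed to test compound for 48 hours across five concentrations. GI50 = concentration required for 50% inhibition of growth.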 Active and inactive are the calls of the source. Cut-off read from the data, not from the text of the source: active = GI50 up to about 1.1 µM and inactive = higher.
How the values were obtained:
Assay in all cases: inhibition of tumour cell growth, NCI panel, 48 h
[1] = test system: RXF 393
[2] = test system: A549
[3] = test system: T47D
[4] = test system: MOLT-4
[5] = test system: BT-549
[6] = test system: CCRF-CEM
[7] = test system: EKVX
[8] = test system: UO-31
[9] = test system: MDA-MB-435
[10] = test system: KM12
[11] = test system: OVCAR-8
[12] = test system: K562
[13] = test system: ACHN
[14] = test system: U-251
[15] = test system: MDA-N
[16] = test system: 786-0
[17] = test system: HL-60
[18] = test system: SR
[19] = test system: OVCAR-3
[20] = test system: SK-MEL-5
[21] = test system: SF-539
[22] = test system: NCI-H23
[23] = test system: SNB-19
[24] = test system: SF-295
[25] = test system: OVCAR-5
[26] = test system: NCI-H460
[27] = test system: DU-145
[28] = test system: NCI-H226
[29] = test system: HT-29
[30] = test system: UACC-257
[31] = test system: M14
[32] = test system: NCI-H522
[33] = test system: Hs-578T
[34] = test system: IGROV-1
[35] = test system: SNB-75
[36] = test system: OVCAR-4
[37] = test system: TK-10
[38] = test system: SF-268
[39] = test system: MCF7
[40] = test system: HCT-15
[41] = test system: SW-620
[42] = test system: NCI/ADR-RES
[43] = test system: MDA-MB-231
[44] = test system: HOP-92
[45] = test system: CAKI-1
[46] = test system: HOP-62
[47] = test system: Malme-3M
[48] = test system: HCT-116
[49] = test system: HCC 2998
[50] = test system: RPMI-8226
[51] = test system: SK-OV-3
[52] = test system: A498
[53] = test system: UACC-62
[54] = test system: COLO 205
[55] = test system: PC-3
[56] = test system: SK-MEL-2
[57] = test system: SN12C
[58] = test system: SK-MEL-28

SMILES: COc1cc(/C=N/Nc2nnc3c4ccccc4c4ncccc4c3n2)cc(OC)c1OC
- GI50 [1]: 4.72 µM (inactive)
- GI50 [2]: 2.79 µM (inactive)
- GI50 [3]: 1.21 µM (inactive)
- GI50 [4]: 2.9 µM (inactive)
- GI50 [5]: 6.22 µM (inactive)
- GI50 [6]: 2.63 µM (inactive)
- GI50 [7]: 9.82 µM (inactive)
- GI50 [8]: 3.39 µM (inactive)
- GI50 [9]: 5.12 µM (inactive)
- GI50 [10]: 9.29 µM (inactive)
- GI50 [11]: 2.23 µM (inactive)
- GI50 [12]: 3.17 µM (inactive)
- GI50 [13]: 5.85 µM (inactive)
- GI50 [14]: 4.21 µM (inactive)
- GI50 [15]: 1.61 µM (inactive)
- GI50 [16]: 5.83 µM (inactive)
- GI50 [17]: 3.62 µM (inactive)
- GI50 [18]: 3.37 µM (inactive)
- GI50 [19]: 3.53 µM (inactive)
- GI50 [20]: 4.31 µM (inactive)
- GI50 [21]: 3.71 µM (inactive)
- GI50 [22]: 2.57 µM (inactive)
- GI50 [23]: 6.71 µM (inactive)
- GI50 [24]: 3.49 µM (inactive)
- GI50 [25]: 5.13 µM (inactive)
- GI50 [26]: 0.728 µM (active)
- GI50 [27]: 3.31 µM (inactive)
- GI50 [28]: 3.01 µM (inactive)
- GI50 [29]: 2.02 µM (inactive)
- GI50 [30]: 1.97 µM (inactive)
- GI50 [31]: 8.51 µM (inactive)
- GI50 [32]: 2.47 µM (inactive)
- GI50 [33]: 4.74 µM (inactive)
- GI50 [34]: 1.04 µM (active)
- GI50 [35]: 3.82 µM (inactive)
- GI50 [36]: 6.46 µM (inactive)
- GI50 [37]: 4.28 µM (inactive)
- GI50 [38]: 6.58 µM (inactive)

SMILES: Cn1cnnc1SC(F)(F)c1nc2ccccc2o1
- GI50 [1]: > 100 µM (inactive)
- GI50 [39]: > 100 µM (inactive)
- GI50 [2]: > 100 µM (inactive)
- GI50 [3]: > 100 µM (inactive)
- GI50 [40]: > 100 µM
- GI50 [41]: > 100 µM (inactive)
- GI50 [4]: > 100 µM (inactive)
- GI50 [5]: > 100 µM (inactive)
- GI50 [6]: > 100 µM (inactive)
- GI50 [42]: > 100 µM (inactive)
- GI50 [43]: > 100 µM (inactive)
- GI50 [44]: > 100 µM (inactive)
- GI50 [8]: > 100 µM (inactive)
- GI50 [9]: > 100 µM (inactive)
- GI50 [10]: > 100 µM (inactive)
- GI50 [45]: > 100 µM (inactive)
- GI50 [11]: > 100 µM (inactive)
- GI50 [12]: > 100 µM (inactive)
- GI50 [13]: > 100 µM (inactive)
- GI50 [14]: > 100 µM (inactive)
- GI50 [15]: > 100 µM (inactive)
- GI50 [46]: > 100 µM (inactive)
- GI50 [16]: > 100 µM (inactive)
- GI50 [18]: > 100 µM (inactive)
- GI50 [47]: > 100 µM (inactive)
- GI50 [19]: > 100 µM (inactive)
- GI50 [20]: > 100 µM (inactive)
- GI50 [48]: > 100 µM (inactive)
- GI50 [21]: > 100 µM (inactive)
- GI50 [22]: > 100 µM (inactive)
- GI50 [24]: > 100 µM (inactive)
- GI50 [49]: > 100 µM (inactive)
- GI50 [25]: > 100 µM (inactive)
- GI50 [50]: > 100 µM (inactive)
- GI50 [51]: > 100 µM (inactive)
- GI50 [26]: > 100 µM (inactive)
- GI50 [52]: > 100 µM (inactive)
- GI50 [27]: > 100 µM (inactive)
- GI50 [28]: > 100 µM (inactive)
- GI50 [53]: > 100 µM (inactive)
- GI50 [54]: > 100 µM (inactive)
- GI50 [29]: > 100 µM (inactive)
- GI50 [55]: > 100 µM (inactive)
- GI50 [56]: > 100 µM (inactive)
- GI50 [30]: > 100 µM (inactive)
- GI50 [31]: > 100 µM (inactive)
- GI50 [57]: > 100 µM (inactive)
- GI50 [32]: > 100 µM (inactive)
- GI50 [34]: > 100 µM (inactive)
- GI50 [35]: > 100 µM (inactive)
- GI50 [58]: > 100 µM (inactive)
- GI50 [36]: > 100 µM (inactive)
- GI50 [37]: > 100 µM (inactive)
- GI50 [38]: > 100 µM (inactive)
